Data on nine molecules can be found in patent US20260007681A1, “INDOLE DERIVATIVES AS ESTROGEN RECEPTOR DEGRADERS” (REGENTS OF THE UNIVERSITY OF MICHIGAN, priority 2022, published 2026).

One assay has as its target ERα_LBD(GST) (Homo sapiens (Human), UniProt P03372). Briefly: IC50 measurements for binding to ERα_LBD (GST), LanthaScreen TR-FRET ERα competitive binding assay. The following applies: 4 nM ERα_LBD(GST), 3 nM Fluormone ES2 Green tracer, 60 min; read-out: ERα HTRF IC50. On the procedure: • 1. ERα_LBD(GST) protein: 4 nM • 2. Tb Anti-GST: 2 nM • 3. Fluormone ES2 Green tracer: 3 nM • 4. Incubation time: 60 min • 5. DMSO: 1% • 6. Assay buffer: Adding 1M DTT to Nuclear receptor Buffer K for final 5 mM DTT. • 7. ZPE: 1% DMSO • 8. HPE: 1 μM ARV_471 • 9. LanthaScreen® TR-FRET ERα Competitive Binding Assay (ThermoFisher, #A15887)
• 1) Cherry pick 2 μL 10 mM compound stock to column 1 of a 384 intermediate plate • 2) Add 18 μL DMSO to column 1 to dilute compound to 1 mM. • 3) Transfer 10 μL 1 mM compound to column 1 of a LDV plate. • 4) Add 6 μl DMSO to column 2-10 of the LDV plate. • 5) Compounds undergo 3-fold serial dilution (3 μL+6 μL) in DMSO. • 6) Transfer 120 nL compound solution to assay plate. • ZPE: 120 nL 100% DMSO
Prepare complete nuclear receptor buffer K by adding 1 M DTT to nuclear receptor buffer K for a final concentration of 5 mM DTT. Complete nuclear receptor buffer K must be prepared fresh daily. Prepare 2X protein solution using complete nuclear receptor buffer K containing 8 nM ERα_LBD(GST) and 4 nM Tb Anti-GST. Then, prepare 2× Fluormone ES2 Green tracer (6 nM) using complete nuclear receptor buffer K. Add 6 μL 2× Fluormone ES2 green tracer into a compound plate (PerkinElmer 6008289) by dragonfly with one-tips-addition. Subsequently, add 6 μL 2× protein solution into the plate. Briefly and gently mix the 384-well plate on a plate shaker and incubate at room temperature protected from light for 60 min. The plate is sealed with a cover to minimize evaporation. Read the plate at wavelengths of 520 nm and 495 nm. Calculate the TR-FRET ratio by dividing the emission signal at 520 nm by the emission signal at 495 nm. Generate a binding curve by plotting the emission ratio vs. the log [ligand]. To determine the IC50 value, fit the data using XL-fit for a sigmoidal dose-response.

In a further assay the target is ER in MCF-7 cells (Homo sapiens (Human), UniProt P03372). As to the kind of experiment: In-cell western (ICW) ER degradation assay in MCF-7 cells (Compounds A1-A70). In kind it is cell-based. The following applies: for DC50: ER degradation, 0.02 to 300 nM, read-out: MCF7 ICW DC50; for MCF7 ICW Dmax (%): maximal ER degradation.
ER in MCF-7 cells, sequence (P03372 whole entry): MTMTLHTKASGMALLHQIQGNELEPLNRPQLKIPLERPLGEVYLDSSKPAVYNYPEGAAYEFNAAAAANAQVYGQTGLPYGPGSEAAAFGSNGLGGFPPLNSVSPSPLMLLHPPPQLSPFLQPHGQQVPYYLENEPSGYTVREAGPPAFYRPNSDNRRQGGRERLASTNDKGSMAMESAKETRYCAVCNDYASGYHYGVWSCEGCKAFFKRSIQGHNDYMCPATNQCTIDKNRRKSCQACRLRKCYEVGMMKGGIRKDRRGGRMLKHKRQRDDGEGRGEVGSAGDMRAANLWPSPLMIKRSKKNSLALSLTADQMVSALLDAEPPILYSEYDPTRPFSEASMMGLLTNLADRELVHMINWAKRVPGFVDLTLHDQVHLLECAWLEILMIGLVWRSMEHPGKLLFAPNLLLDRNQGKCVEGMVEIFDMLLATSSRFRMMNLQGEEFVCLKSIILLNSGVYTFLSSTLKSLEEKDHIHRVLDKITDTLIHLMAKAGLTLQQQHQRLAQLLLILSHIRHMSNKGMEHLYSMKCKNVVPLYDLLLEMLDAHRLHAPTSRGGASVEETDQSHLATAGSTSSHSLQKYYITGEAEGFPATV
The next assay addresses CRBN/DDB1 (Homo sapiens (Human), UniProt Q96SW2). In kind it is binding. The following applies: His tagged CRBN+DDB-DLS7+CXU4, Cy5-labeled Thalidomide probe, one hour incubation; read-out: CRBN HTRF IC50. On the procedure: The binding potency was determined using H-TRF assay technology (Perkin Elmer). Compounds were serially diluted in DMSO and 0.2 μL volume was transferred to white 384-well plate.

The target in a further assay is ER in T47D cells (Homo sapiens (Human), UniProt P03372). As to the kind of experiment: In-cell western (ICW) ER degradation assay in T47D cells (Compounds A1-A70). In kind it is cell-based. The settings on record: T47D cells, 16 hrs treatment; for DC50: ER degradation, 0.02 to 300 nM; for T47D ICW Dmax (%) / Dmax: maximal ER degradation; for Dmax: read-out: T47D ICW Dmax (%).
ER in T47D cells, sequence (P03372 whole entry): as above

The mark [1] stands for this setting: MCF7, maximal ER degradation, MCF-7 cells, 16 hrs treatment, read-out: MCF7 ICW Dmax (%).

Molecules are shown by their SMILES. Read-outs that look alike come from different tables or passages of the source.

ERα_LBD(GST), sequence (P03372 311-547): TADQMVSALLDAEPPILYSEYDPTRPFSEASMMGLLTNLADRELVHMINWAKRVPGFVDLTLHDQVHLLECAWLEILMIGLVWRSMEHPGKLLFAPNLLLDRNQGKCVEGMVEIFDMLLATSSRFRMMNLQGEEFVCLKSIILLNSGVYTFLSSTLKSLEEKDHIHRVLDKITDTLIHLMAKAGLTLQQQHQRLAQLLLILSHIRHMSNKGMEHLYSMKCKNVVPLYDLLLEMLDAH
CRBN/DDB1, sequence (Q96SW2 whole entry): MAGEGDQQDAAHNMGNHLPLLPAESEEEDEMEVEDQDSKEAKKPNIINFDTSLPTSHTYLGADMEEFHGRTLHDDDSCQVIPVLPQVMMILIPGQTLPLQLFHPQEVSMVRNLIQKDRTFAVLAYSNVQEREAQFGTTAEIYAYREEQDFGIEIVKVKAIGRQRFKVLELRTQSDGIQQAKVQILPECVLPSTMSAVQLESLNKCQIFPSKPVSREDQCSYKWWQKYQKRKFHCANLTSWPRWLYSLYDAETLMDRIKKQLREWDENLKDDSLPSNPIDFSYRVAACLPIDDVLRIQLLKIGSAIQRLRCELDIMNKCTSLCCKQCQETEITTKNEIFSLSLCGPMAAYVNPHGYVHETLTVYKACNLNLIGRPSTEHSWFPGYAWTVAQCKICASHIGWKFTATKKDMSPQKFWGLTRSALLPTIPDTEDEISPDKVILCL
CRBN/DDB1, sequence (Q16531 whole entry partner): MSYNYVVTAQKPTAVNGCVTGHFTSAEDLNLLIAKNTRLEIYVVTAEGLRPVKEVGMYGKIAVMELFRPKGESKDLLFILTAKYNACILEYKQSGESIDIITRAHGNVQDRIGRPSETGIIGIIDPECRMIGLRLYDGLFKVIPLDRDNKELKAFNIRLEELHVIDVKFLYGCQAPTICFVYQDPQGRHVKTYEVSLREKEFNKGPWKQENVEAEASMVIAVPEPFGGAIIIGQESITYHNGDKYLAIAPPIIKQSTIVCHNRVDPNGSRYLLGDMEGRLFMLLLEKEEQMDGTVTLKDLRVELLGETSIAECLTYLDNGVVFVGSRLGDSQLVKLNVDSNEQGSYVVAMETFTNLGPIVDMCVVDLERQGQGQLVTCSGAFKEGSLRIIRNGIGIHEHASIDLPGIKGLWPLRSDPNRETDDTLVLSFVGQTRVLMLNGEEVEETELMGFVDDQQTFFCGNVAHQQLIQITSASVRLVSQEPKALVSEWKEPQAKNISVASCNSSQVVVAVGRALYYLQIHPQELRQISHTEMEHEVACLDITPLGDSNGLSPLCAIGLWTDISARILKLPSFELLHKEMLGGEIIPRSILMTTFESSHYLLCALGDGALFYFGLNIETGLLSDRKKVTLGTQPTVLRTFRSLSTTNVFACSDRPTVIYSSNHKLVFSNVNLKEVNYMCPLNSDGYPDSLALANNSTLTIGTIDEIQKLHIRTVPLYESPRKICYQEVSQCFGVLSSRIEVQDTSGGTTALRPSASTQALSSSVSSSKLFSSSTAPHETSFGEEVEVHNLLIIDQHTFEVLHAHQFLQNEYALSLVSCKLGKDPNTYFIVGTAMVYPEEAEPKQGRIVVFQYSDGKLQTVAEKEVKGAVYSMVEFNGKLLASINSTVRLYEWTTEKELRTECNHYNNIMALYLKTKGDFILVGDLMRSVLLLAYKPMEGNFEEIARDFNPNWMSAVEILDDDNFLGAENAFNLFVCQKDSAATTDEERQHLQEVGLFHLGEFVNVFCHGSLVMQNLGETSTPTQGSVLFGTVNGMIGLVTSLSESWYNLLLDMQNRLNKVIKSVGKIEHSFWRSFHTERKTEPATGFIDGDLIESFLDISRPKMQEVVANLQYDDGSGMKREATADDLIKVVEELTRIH

For `COc1cc(N2CCC(CN3CCN4c5ccc6c(c5OC[C@H]4C3)CN([C@H]3CCC(=O)NC3=O)C6=O)CC2)ccc1[C@@H]1c2[nH]c3ccccc3c2C[C@@H](C)N1CC(F)F` [Compound A19, (S)-3-((R)-7-((1-(4-((1R,3R)-2-(2,2-difluoroethyl)-3-methyl-2,3,4,9-tetrahydro-1H-pyrido[3,4-b]indol-1-yl)-3-methoxyphenyl)piperidin-4-yl)methyl)-1-oxo-1,3,5,5a,6,7,8,9-octahydro-2H-pyrazino[1′,2′:4,5][1,4]oxazino[2,3-c]isoindol-2-yl)piperidine-2,6-dione], the figures for the IC50 at ERα_LBD(GST) and at CRBN/DDB1 were less than 10 nM and 50 to 500 nM, respectively. Moreover, the DC50 on ER in MCF-7 cells (MCF-7 cells, 16 hrs treatment) is 1 to 10 nM. Moreover, at ER in MCF-7 cells (setting [1]), the greatest degradation seen (Dmax) fell in the range of 50 to 75%.
Consider `COc1cc(N2CCC(CN3CCN4c5cc6c(cc5OC[C@@H]4C3)C(=O)N([C@H]3CCC(=O)NC3=O)C6)CC2)ccc1[C@@H]1c2[nH]c3ccccc3c2C[C@@H](C)N1CC(F)F` [Compound A28, (S)-3-((S)-3-((1-(4-((1R,3R)-2-(2,2-difluoroethyl)-3-methyl-2,3,4,9-tetrahydro-1H-pyrido[3,4-b]indol-1-yl)-3-methoxyphenyl)piperidin-4-yl)methyl)-8-oxo-1,2,3,4,4a,5,8,10-octahydro-9H-pyrazino[1′,2′:4,5][1,4]oxazino[2,3-f]isoindol-9-yl)piperidine-2,6-dione], for which the 50% inhibitory concentration (IC50) at ERα_LBD(GST) is less than 10 nM. Moreover, at ER in T47D cells, the DC50 was less than 1 nM; the “T47D ICW Dmax (%)” value was “B (“B”: >50% and <75%)”. Further, at ER in MCF-7 cells (MCF-7 cells, 16 hrs treatment), the 50% degradation concentration (DC50) is less than 1 nM and the “MCF7 ICW Dmax (%)” value is listed as “C (“C”: 25%-50%)”. Further, the IC50 on CRBN/DDB1 lay within 50 to 500 nM.
For the molecule `COc1cc(N2CCC(CN3CCN4c5cc6c(cc5OC[C@@H]4C3)C(=O)N([C@H]3CCC(=O)NC3=O)C6)CC2)ccc1[C@@H]1c2[nH]c3ccccc3c2C[C@@H](C)N1CC(F)F` [Compound A29, (S)-3-((S)-3-((1-(4-((1R,3R)-2-(2,2-difluoroethyl)-3-methyl-2,3,4,9-tetrahydro-1H-pyrido[3,4-b]indol-1-yl)-3-methoxyphenyl)piperidin-4-yl)methyl)-8-oxo-1,2,3,4,4a,5,8,10-octahydro-9H-pyrazino[1′,2′:4,5][1,4]oxazino[2,3-f]isoindol-9-yl)piperidine-2,6-dione], the IC50 at ERα_LBD(GST) was less than 10 nM. Also, at ER in T47D cells, the half-maximal degradation concentration (DC50) is less than 1 nM and the “T47D ICW Dmax (%)” value was “A (“A”: >=75%)”. Moreover, on ER in MCF-7 cells (MCF-7 cells, 16 hrs treatment), the DC50 was less than 1 nM; the “MCF7 ICW Dmax (%)” value is “B (“B”: >50% and <75%)”. Besides, the concentration for half-maximal inhibition (IC50) on CRBN/DDB1 is 500 to 5000 nM.
As for `C[C@@H]1Cc2c([nH]c3ccccc23)[C@@H](c2cnc(N3CCC(CN4CCC5(CC4)COc4cc6c(cc45)CN(C4CCC(=O)NC4=O)C6=O)CC3)nc2)N1CC(F)(F)CO` (stereo partly drawn) [Compound A36, 3-(1′-((1-(5-((1R,3R)-2-(2,2-difluoro-3-hydroxypropyl)-3-methyl-2,3,4,9-tetrahydro-1H-pyrido[3,4-b]indol-1-yl)pyrimidin-2-yl)piperidin-4-yl)methyl)-7-oxo-5,7-dihydro-2H,6H-spiro[furo[2,3-f]isoindole-3,4′-piperidin]-6-yl) piperidine-2,6-dione], the IC50 is less than 10 nM at ERα_LBD(GST) and 50 to 500 nM on CRBN/DDB1. For the same molecule, the DC50 at ER in T47D cells is less than 1 nM; at ER in MCF-7 cells (MCF-7 cells, 16 hrs treatment), 1 to 10 nM. The figures for the Dmax at ER in T47D cells and on ER in MCF-7 cells (setting [1]) were 50 to 75% and 25 to 50%, respectively.
As for `COc1cc(N2CCC(CN3CCN4c5ccc6c(c5OC[C@H]4C3)CN([C@@H]3CCC(=O)NC3=O)C6=O)CC2)ccc1[C@@H]1c2[nH]c3ccccc3c2C[C@@H](C)N1CC(F)F` [Compound A37, (R)-3-((R)-7-((1-(4-((1R,3R)-2-(2,2-difluoroethyl)-3-methyl-2,3,4,9-tetrahydro-1H-pyrido[3,4-b]indol-1-yl)-3-methoxyphenyl)piperidin-4-yl)methyl)-1-oxo-1,3,5,5a,6,7,8,9-octahydro-2H-pyrazino[1′,2′:4,5][1,4]oxazino[2,3-e]isoindol-2-yl)piperidine-2,6-dione], the results for the IC50 on ERα_LBD(GST) and on CRBN/DDB1 were less than 10 nM and more than 5000 nM, respectively. Further, the DC50 on ER in T47D cells was less than 1 nM; on ER in MCF-7 cells (MCF-7 cells, 16 hrs treatment), less than 1 nM. Besides, the Dmax on ER in T47D cells (T47D) was more than 75%; at ER in MCF-7 cells (setting [1]), 50 to 75%.
For `COc1cc(N2CCC(CN3CCN4c5ccc6c(c5OC[C@@H]4C3)CN([C@H]3CCC(=O)NC3=O)C6=O)CC2)ccc1[C@@H]1c2[nH]c3ccccc3c2C[C@@H](C)N1CC(F)F` [Compound A45, (S)-3-((S)-7-((1-(4-((1R,3R)-2-(2,2-difluoroethyl)-3-methyl-2,3,4,9-tetrahydro-1H-pyrido[3,4-b]indol-1-yl)-3-methoxyphenyl)piperidin-4-yl)methyl)-1-oxo-1,3,5,5a,6,7,8,9-octahydro-2H-pyrazino[1′,2′:4,5][1,4]oxazino[2,3-e]isoindol-2-yl)piperidine-2,6-dione], the IC50 is less than 10 nM on ERα_LBD(GST) and more than 5000 nM on CRBN/DDB1. The DC50 at ER in T47D cells was less than 1 nM; at ER in MCF-7 cells (MCF-7 cells, 16 hrs treatment) it was less than 1 nM. At ER in T47D cells (T47D), the Dmax was more than 75%. For the same molecule, the “MCF7 ICW Dmax (%)” value at ER in MCF-7 cells (MCF-7 cells, 16 hrs treatment) is on record as “A (“A”: >=75%)”.
Take `COc1cc(N2CCC(CN3CCN(c4ccc(C(=O)N[C@H]5CCC(=O)NC5=O)nc4)CC3)CC2)ccc1[C@@H]1c2[nH]c3ccccc3c2C[C@@H](C)N1CC(F)F` [Compound A55, 5-(4-((1-(4-((1R,3R)-2-(2,2-difluoroethyl)-3-methyl-2,3,4,9-tetrahydro-1H-pyrido[3,4-b]indol-1-yl)-3-methoxyphenyl)piperidin-4-yl)methyl)piperazin-1-yl)-N—((S)-2,6-dioxopiperidin-3-yl)picolinamide]: the values for the IC50 on ERα_LBD(GST) and on CRBN/DDB1 were less than 10 nM and more than 5000 nM, respectively. Besides, the DC50 on ER in MCF-7 cells (MCF-7 cells, 16 hrs treatment) was less than 1 nM.
On to `C[C@H]1Cc2c([nH]c3ccccc23)[C@H](c2cnc(N3CCC4(CC3)C[C@@H](CN3CCN5c6cc7c(cc6OC[C@H]5C3)C(=O)N([C@@H]3CCC(=O)NC3=O)C7)CO4)nc2)N1CC(F)F` [Compound A61, (R)-3-((R)-3-(((S)-8-(5-((1S,3S)-2-(2,2-difluoroethyl)-3-methyl-2,3,4,9-tetrahydro-1H-pyrido[3,4-b]indol-1-yl)pyrimidin-2-yl)-1-oxa-8-azaspiro[4.5]decan-3-yl)methyl)-8-oxo-1,2,3,4,4a,5,8,10-octahydro-9H-pyrazino[1′,2′:4,5][1,4]oxazino[2,3-f]isoindol-9-yl)piperidine-2,6-dione], for which, on ERα_LBD(GST), the IC50 was not below 10 nM. Moreover, the DC50 on ER in T47D cells is less than 1 nM; at ER in MCF-7 cells (MCF-7 cells, 16 hrs treatment) it was less than 1 nM. The Dmax on ER in T47D cells (T47D) lay in the range of 50 to 75%; on ER in MCF-7 cells (MCF7, read-out: MCF7 ICW Dmax (%)), 50 to 75%.
Consider `C[C@@H]1Cc2c([nH]c3ccccc23)[C@@H](c2cnc(N3CCC4(CC3)C[C@@H](CN3CCC(c5ccc(N[C@@H]6CCC(=O)NC6=O)cc5)CC3)CO4)nc2)N1CC(F)F` [Compound A70, (3R)-3-((4-(1-((8-(5-((1R,3R)-2-(2,2-difluoroethyl)-3-methyl-2,3,4,9-tetrahydro-1H-pyrido[3,4-b]indol-1-yl)pyrimidin-2-yl)-1-oxa-8-azaspiro[4.5]decan-3-yl)methyl)piperidin-4-yl)phenyl)amino)piperidine-2,6-dione], for which, at ERα_LBD(GST), the IC50 was less than 10 nM. Further, the DC50 at ER in T47D cells was less than 1 nM; at ER in MCF-7 cells (MCF-7 cells, 16 hrs treatment) it was less than 1 nM. For the same molecule, the Dmax at ER in T47D cells (T47D) is more than 75%; at ER in MCF-7 cells (setting [1]) it was 50 to 75%.
